Legend:
S. aureus biofilms = test: Biofilm model: 24 hour exposure against 24 hour old single species biofilm, viable count; assay type: cell-based, Staphylococcus aureus; conditions: 30 μl per disc/biofilm, 37° C., 80 rpm shaking, FIG. 2
Description: (§1) Stationary phase cultures of S. aureus or P. aeruginosa grown in TSB were adjusted to 0.5 McFarland (c. 1.5×10^8 CFU/mL) and diluted a further 1:4 ratio (1 mL inoculum with 3 mL 0.1% Bactopeptone). A viable count was taken of each inoculum preparation. Sterile discs (6 mm diameter×1.0 mm) housed in 24 well culture plates were inoculated with 80 μL of culture. 0.2 ml of a test media was then added, the assay plates were parafilmed and incubated for 24 h at 37 degrees Celsius with 80 rpm shaking to allow biofilm formation. Unused wells were filled with PBS to increase humidity and prevent evaporation. After 24 hours incubation, cellulose discs/biofilms were rinsed with PBS to remove any […] vegetative cells and transferred to 150 μl of fresh media. For the honey (as the source of glucose) and Prontosan®, 30 μl was added to each test disc. […] Assuming the lowest concentration (100,[…]), 3.5 mg (350 U) was added to 3.5 ml of DPBS to give a 100 U/ml working stock which was filter sterilised. […] 30 μl of each was added to a disc/biofilm. The assay plates were parafilmed and incubated for 24 hours at 37° C. with 80 rpm shaking to allow biofilm disruption. Unused wells were filled with PBS to increase humidity and prevent evaporation. […]

P. aeruginosa biofilms = test: as above; assay type: cell-based, Pseudomonas aeruginosa; conditions: 30 μl per disc/biofilm, 37° C., 80 rpm shaking, FIG. 1
Description: as §1, with “sterilised. For the Pseudomonas experiment, the working stock was diluted in PBS to give a 10 U/ml solution-30 μl was added to a disc/biofilm.” for “sterilised.”

glucose oxidase [glucose oxidase alone]
inhibition of 24 hour old single species biofilms of S. aureus (S. aureus biofilms): no inhibition | inhibition of 24 hour old single species biofilms of P. aeruginosa (P. aeruginosa biofilms): no inhibition
